Measured values as given in patent US4732890A, “Retro-inverso hexapeptide neurotensin analogs, process for their preparation and pharmaceutical compositions containing them” (Eniricerche S.p.A., priority 1985, dated 1988).

Tests used:
[1] = cited from earlier work
male rats = assay: Blood pressure after i.v. injection in urethane-anesthetized male rats; type: in vivo, rat; conditions: 20 meq/Kg; for Arterial pressure: i.v. right femoral vein, basal 80-130 mmHg; for Pressure Δ: i.v., versus basal 80-130 mmHg
Protocol: Typically, male rats weighing about 200-300 g, anesthetized with urethane (1.75 g/Kg i.p.), were employed in these tests and the hexapeptide [drawing 9] was administered by i.v. injection in the right femoral vein at a dosage of 20 meq/Kg body weight.
Blood pressure was recorded at different times following the injection.
The basal values were on the average 80-130 mmHg.

Substance | in vivo biological activity relative to NT [1] | Arterial pressure (male rats; 30' from admin.) | Pressure Δ (male rats; 30' from admin.) | Arterial pressure (male rats; 1 h from admin.) | Pressure Δ (male rats; 1 h from admin.) | Arterial pressure (male rats; 2 h from admin.) | Pressure Δ (male rats; 2 h from admin.) | Arterial pressure (male rats; 2.5 h from admin.) | Pressure Δ (male rats; 2.5 h from admin.) | Arterial pressure (male rats; 3.5 h from admin.) | Pressure Δ (male rats; 3.5 h from admin.) | Arterial pressure (male rats; 4.5 h from admin.) | Pressure Δ (male rats; 4.5 h from admin.) | Arterial pressure (male rats; 5 h from admin.) | Pressure Δ (male rats; 5 h from admin.) | Arterial pressure (male rats; 6 h from admin.) | Pressure Δ (male rats; 6 h from admin.)
Arg-Arg-Pro-Tyr-Ile-Leu (RRPYIL; printed: Arg-Arg-Pro-Tyr-Ile-Leu) [C-terminal hexapeptide, C-terminal hexapeptide fragment of NT] | much lower than NT itself |  |  |  |  |  |  |  |  |  |  |  |  |  |  |  | 
Arginyl-arginyl-prolyl-tyrosyl-gem diamino-isoleucyl-(R,S)malonyl-leucine [Example 1] |  | 80-125 mmHg | 0-5 | 75-125 mmHg | 5-5 | 75-125 mmHg | 5-5 | 75-120 mmHg | 5-10 | 75-120 mmHg | 5-10 | 70-110 mmHg | 10-20 | 70-110 mmHg | 10-20 | 65-105 mmHg | 15-25
